We go through one compound from patent US11702403B2, “EAAT2 activators and methods of using thereof” (OHIO STATE INNOVATION FOUNDATION, priority 2018, dated 2023).

The structures appear in SMILES notation.

For one assay, the system named is human EAAT2. As to the kind of experiment: EAAT2 protein levels in PA-EAAT2 cells by Western blot. Type of assay: cell-based. The procedure:
Compounds were evaluated in PA-EAAT2 cells, a primary astrocyte stably expressing human EAAT2 mRNAs (Kong et al., J Clin Invest. 2014:1255-67). Cells were treated with compound at 0.0375, 0.075, 0.15, 0.3, 0.6, 1.25, 2.5, 5, 10 μM for 24 hr and then harvested for measuring EAAT2 protein levels by Western blot analysis.

Assay [1] concerns mouse model of Gulf War Illness (GWI). The assay can be described thus: Mouse model of Gulf War Illness, mood and cognitive behavior tests. Type of assay: in vivo, C57BL/6J mice. The procedure:
Three months old C57BL/6J mice were randomly divided into three groups: control (no GWI, with vehicle), GWI with vehicle, and GWI with compound. For GWI groups, mice were exposed to GWI chemicals and chronic unpredictable stress daily for 6 weeks. GWI chemicals include pyridostigmine (1.3 mg/kg), permethrin (0.13 mg/kg), and DEET (40 mg/kg). The stress regimen included exposure to two different stressors each day. The stressors used in this study include restraint, cage rotation, hot stress, cold stress, predator sound, periods of darkness during the light cycle, wet bedding, replace bedding with water, cage tilt at 45 degree angle, and stroboscopic lighting. […] At 3-months post-exposure, mice were subjected to several behavior tests to assess mood and cognitive functions. These tests included dark and light exploration, elevated plus maze, novelty suppressed feeding, tail suspension open field, novel object recognition, and Barnes maze tests.
After one month of treatment, mice were evaluated for mood and cognitive functions.

The subject of assay [2] is CA3-CA1 LTP in the hippocampus. The assay can be described thus: Long-term potentiation (LTP) in acute hippocampal slices of treated wild-type mice. The class given is in vivo. The note with it: 10 mg/kg for 7 days, vs vehicle, up to 30 min after LTP induction. The procedure:
Mice were treated with compound at 40 mg/kg (or as depicted) and forebrains were harvested for the gliosome preparation 24 hr (or as described) post-treatment. FIG. 2A: Western blots show dose-dependent increase of EAAT2 protein levels. FIG. 2B: Time-dependent fold increase in EAAT2 protein expression in response to compound treatment at 4 hours (1.54±0.13) and 24 hours (1.98±0.19) post-treatment. Quantification of EAAT2 expression time course (normalized to flotilin; n=4/group). Data represented as mean SEM and analyzed using one-way ANOVA with Tukey post-hoc test. *p<0.05, **p<0.01. FIG. 2C: Compound treatment enhances CA3-CA1 LTP in the hippocampus. Mice were treated with vehicle or compound for seven days and acute hippocampal sections were collected for LTP recordings. […] Data represented as mean SEM analyzed using one-way ANOVA with Bonferroni post-hoc tests. […]
At 24 hours post-treatment, mice were euthanized and forbrains were harvested. […] Acute hippocampal slices were then collected and assessed for changes in long-term potentiation (LTP).
Wild-type C57BL/6 mice (2-3 months old) were treated orally with compound 101 at 0.01, 0.033, 0.1, 0.33, 1, 3.33, 10, 20, 40, 60, and 100 mg/kg/day (voluntary ingestion of compound in honey) for seven or 28 days. […] Mice were then euthanized and acute hippocampal slices were collected and assessed for changes in long-term potentiation (LTP).

In a further assay the test system is tau. As to the kind of experiment: Tau expression and phosphorylation in total cell lysates and Sarkosyl insoluble fractions of rTg4510 forebrains. Type of assay: in vivo, mice. The source says:
(§1) FIGS. 7A and 7B illustrate the effect of compound treatment on phosphorylated tau in total lysates (TCL) and in the Sarkosyl insoluble (P3) fraction (n=4/group). Dashed-line represents expression in rTg4510 vehicle group.
We, therefore, investigated if the compound could reduce toxic forms of tau. […] Four antibodies, which recognized different phosphorylation sites or pathological forms of tau, were used: PHF1 recognized Ser 396 & Ser404; AT8 recognized Ser202 & Thr205; MC-1 recognized neurofibrillary tangles and Tau5 recognized all of tau (phosphorylated and non-phosphorylated isoforms). […] There was an especially significant reduction in the 64 kDa (hyperphosphorylated) variant for each antibody tested; it has been reported that the 64 kDa variant was strongly correlated with neurodegeneration.
[…] The phosphorylation (activation) state of kinases that have been reported to target tau as a substrate were assessed. […] This form of phosphorylation inhibits GSK3β activity. Therefore, inactivation of the GSK3β kinase may mediate reduced tau phosphorylation in rTg4510 mice after compound treatment.

Assay [3] concerns EAAT2. As to the kind of experiment: EAAT2 protein levels in forebrain gliosomes of wild-type FVB/NJ mice by Western blot. The note with it: oral 1, 2.5, 5, 10, 20, 40 mg/kg, 24 hours post-treatment. Type of assay: in vivo. The procedure:
Mice were treated with compound at 40 mg/kg (or as depicted) and forebrains were harvested for the gliosome preparation 24 hr (or as described) post-treatment. FIG. 2A: Western blots show dose-dependent increase of EAAT2 protein levels. FIG. 2B: Time-dependent fold increase in EAAT2 protein expression in response to compound treatment at 4 hours (1.54±0.13) and 24 hours (1.98±0.19) post-treatment. Quantification of EAAT2 expression time course (normalized to flotilin; n=4/group). Data represented as mean SEM and analyzed using one-way ANOVA with Tukey post-hoc test. *p<0.05, **p<0.01. FIG. 2C: Compound treatment enhances CA3-CA1 LTP in the hippocampus. Mice were treated with vehicle or compound for seven days and acute hippocampal sections were collected for LTP recordings. […] Data represented as mean SEM analyzed using one-way ANOVA with Bonferroni post-hoc tests. Statistical significance denoted as ***p<0.001.
At 24 hours post-treatment, mice were euthanized and forbrains were harvested. Gliosomes (astrocytic processes) were then isolated for measuring EAAT2 protein levels by Western blot analysis. […] This induction could be seen as early as 4 hours post-treatment (FIG. 2B). […] Acute hippocampal slices were then collected and assessed for changes in long-term potentiation (LTP).

A further assay relates to GSK3β. The assay can be described thus: Phosphorylation state of kinases in forebrain TCL of rTg4510 mice. Type of assay: in vivo. The note with it: within one hour of treatment, single dose. The procedure:
as §1
To identify which kinase/phosphatase is involved, forebrain TCL samples were collected from rTg4510 mice one-hour after a single dose. The phosphorylation (activation) state of kinases that have been reported to target tau as a substrate were assessed. […] This form of phosphorylation inhibits GSK3β activity. Therefore, inactivation of the GSK3β kinase may mediate reduced tau phosphorylation in rTg4510 mice after compound treatment.

Assay [4] relates to EAAT2. As to the kind of experiment: EAAT2 protein levels in brains of Beagle dogs by Western blot. The settings on record: oral 20 mg/kg; 0.5, 4, 24 hours post-treatment and seven daily treatment. Type of assay: in vivo. A general note: A western blot detects proteins with antibodies after separation by electrophoresis.
Assay [5] deals with EAAT2. As to the kind of experiment: EAAT2 protein levels in brains of wild-type C57BL/6 mice by Western blot. The class given is in vivo. The settings on record: 10 mpk p.o. The procedure:
Mice then were euthanized and brains were harvested for examining EAAT2 protein levels by Western blot analysis.
Wild-type C57BL/6 mice (2-3 months old) were treated orally with compound 101 at 0.01, 0.033, 0.1, 0.33, 1, 3.33, 10, 20, 40, 60, and 100 mg/kg/day (voluntary ingestion of compound in honey) for seven or 28 days. Mice then were euthanized and brains were harvested for examining EAAT2 protein levels by Western blot analysis. […] To determine the functional consequences of the increased EAAT2 to the synaptic plasticity, wild-type mice were treated with vehicle or compound 101 at 0.033, 0.33, and 3.3 mg/kg for seven days. Mice were then euthanized and acute hippocampal slices were collected and assessed for changes in long-term potentiation (LTP).

Where [6] appears, read: prevention: 20 mg/kg daily from beginning of 6-weeks exposure, tested 3-months post-exposure.
The mark [7] stands for this setting: treatment: 20 mg/kg at five months post-exposure, one month of treatment.

As usually defined, the EC50 is the concentration that produces a half-maximal response. In the case of `CN(C)CCn1nc(-c2ccccn2)ccc1=O` [Compound 100, 2-(2-(dimethylamino)ethyl)-6-(pyridin-2-yl)pyridazin-3(2H)-one], in the assay on human EAAT2 (PA-EAAT2 cells, 24 hr, tested 0.0375-10 μM), the “concentration that reaches maximum activity” value came out at 0.6 µM. In addition, the EC50 with human EAAT2 (primary astrocytes, read-out: EAAT2 induction in vitro - primary astrocytes (EC50)) came to 250 nM. Moreover, in assay [1] (setting [6]), the “anxiety- and depression-like behaviors” value is on record as “significantly reduced”; the cognitive functions entry is given as “improved cognitive functions”. In assay [1] (setting [7]), the “anxiety- and depression-like behaviors” value was “reduced anxiety- and depression-like behaviors”; the cognitive functions entry is on record as “significantly improved”. Further, the “CA1 field potential responses to stimulation of CA3 afferents (LTP)” value in assay [2] was “significantly increased responses”. In addition, in the assay on tau (four months old, after two months of treatment), the “total-tau (transgene expression)” value is “no reduction in total-tau”. Further, the “total tau in the P3 fraction” value in the assay with tau (long-term treatment, Sarkosyl insoluble (P3) fraction) is given as “very significant reduction”. Further, the “phosphorylated (AT8 and PHF1) and conformation specific (MC1) forms of tau” value with tau (long-term treatment, TCL and P3 fraction) is “reduced”. Further, in the assay with tau (single dose, 24 hours later), the “all forms of tau in the P3 fraction” value was “very clear reduction”; the “pTau (AT8 and PHF1) in TCL” value is recorded as “significant decrease”; the “total tau (Tau-5) or tau tangles (MC1) in TCL” value is “no change”. Also, in the assay on EAAT2 [3], the “EAAT2 protein levels in gliosomes” value is “induced EAAT2 expression in a dose-dependent manner”. Besides, the “phosphorylation of GSK3β at Ser9” value with GSK3β is “approximately 2 fold”. Moreover, the “EAAT2 protein levels in dog brains” value in the assay on EAAT2 [4] was “increased in a time-dependent manner”. The “EAAT2 induction in vivo in wild-type mice - 7-day dosing by p.o.” value in the assay on EAAT2 [5] (7-day dosing) is 1.63-fold @ 10 mpk. Besides, the “EAAT2 induction in vivo in wild-type mice - 28-day dosing by p.o.” value with EAAT2 [5] (28-day dosing) is on record as 2.37-fold @ 10 mpk. Besides, the “EAAT2 induction in vivo in wild-type mice - single dose by p.o.” value in the assay with EAAT2 [5] (single dose) was 1.56-fold @ 10 mpk.
